Data published in PubChem BioAssay AID449764 (Southern Research Specialized Biocontainment Screening …, 2010).

test system: Mycobacterium tuberculosis H37Rv growth inhibition, no glycerol; test: Mycobacterium tuberculosis H37Rv growth inhibition, no glycerol, confirmatory dose response (AID 449764); conditions: not given;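 further: growth read after 7 days of incubation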

Going from CCc1cc(C(=O)Nc2nc(-c3ccccn3)cs2)sc1C to CCOC(=O)c1cc(-c2csc(Nc3c(C)cc(C)cc3C)n2)on1, the IC50 falls from 4.53 µM to 1.09 µM (4.2-fold).

Going from Cc1cc(Cl)ccc1OCCCC(=O)NO to CC(C)(C)c1ccc(OCCCC(=O)NC2=NCCS2)cc1, the IC50 falls from 65.1 µM to 38.7 µM (1.7-fold). The second is the more potent here.

Going from COc1ccc(SC[C@H](Cc2ccccc2)N2CCN(CCc3ccccc3)CCC2=O)cc1 to O=C1CC(=C(c2ccccc2)c2ccccc2)C(=O)N1CCCCN1CCN(c2ccccc2)CC1, the IC50 falls from 40.6 µM to 25.3 µM (1.6-fold).

First: CCOc1ccc(-c2cc(C)[n+](CCc3ccc(OC)c(OC)c3)c(-c3ccc(OCC)cc3)c2)cc1
Second: CCOc1ccc(CN(C)CC(O)COC(c2ccc(OC)cc2)c2ccc(OC)cc2)cc1 (centres undefined)
The IC50 of the first is 9.7-fold lower: 1.66 µM for the first, 16.1 µM for the second. The first is the more potent here.

CCOc1cc2c(cc1OCC)-n1cccc1C(c1ccc(C(C)C)cc1)NC2 (centres undefined) and CCN(CCNCC(O)COc1ccccc1C(C)C)c1cccc(C)c1 (centres undefined) are within 1.5-fold of each other in IC50: 20.2 µM for the first, 22.8 µM for the second.

CC1=NN(C(=O)c2ccc(Br)cc2)C(O)(c2ccccc2)C1 (centres undefined) and CSCCC(=O)N1CCCC(CNC(=O)c2ccc(-c3ccccc3)cc2)C1 (centres undefined) are within 1.5-fold of each other in IC50: 42.3 µM for the first, 41.5 µM for the second.

Compared with O=C(NCCC1=CCCCC1)NC12CC3CC(CC(C3)C1)C2, CCN(CC)S(=O)(=O)c1ccc2[nH]cc(C(=O)NCCC3=CCCCC3)c(=O)c2c1 is higher in IC50: under 0.2 µM for the first, 91.7 µM for the second. The first is the more potent here.

CC1CCC(C(C)C)C(OC(=O)Cn2c(-c3ccc(F)cc3)[n+](C)c3ccccc32)C1 (centres undefined) and Cc1ccc(CN2CC(C(=O)OCc3ccccc3Cl)CC2=O)cc1 (centres undefined) are within 1.5-fold of each other in IC50: 10.8 µM for the first, 11.1 µM for the second.

CCN(CC)C(=O)c1cc([N+](=O)[O-])cc2c1-c1ccc([N+](=O)[O-])cc1C2=C(C#N)C#N and Cc1ccnc(Sc2ccc([N+](=O)[O-])cc2[N+](=O)[O-])n1 are within 1.5-fold of each other in IC50: 21.7 µM for the first, 19.8 µM for the second.

O=C(CN1CCCCC1)Nc1nnc(-c2ccc([N+](=O)[O-])cc2)s1 and N#Cc1ccc(CN2CCN(CC(=O)NCCc3ccc(Cl)cc3Cl)CC2)cc1 are the same in IC50: 44.9 µM for the first, 44.9 µM for the second.

Compared with O=c1c2c(-c3ccccc3)csc2ncn1/N=C/c1ccc(O)c([N+](=O)[O-])c1, CCOC(=O)COc1cc(O)c2c(=O)cc(-c3ccccc3)oc2c1 is 27-fold lower in IC50: 37.1 µM for the first, 1.38 µM for the second. The second is the more potent here.

Going from CCn1cc(Br)c(C(=O)Nc2ccc(C(=O)OC(C)C)cc2)n1 to CCOC(=O)CSc1ccc(C(=O)Nc2ccc(OC)cc2)cn1, the IC50 falls from 39.3 µM to 0.46 µM (85-fold). The second is the more potent here.

Going from CCc1ccc(-c2csc(-c3c[nH]c4ccccc34)n2)cc1 to CCOC(=O)c1nnc(-c2ccccc2)nc1Sc1ccccc1Cl, the IC50 rises from 17.1 µM to 90.6 µM (5.3-fold). The first is the more potent here.

Compared with C=CCOC(=O)COc1ccc2c(C)c(CC)c(=O)oc2c1, CCOC(=O)CSc1cc(=O)n(C)c2cc(Cl)ccc12 is lower in IC50: 1.49 µM for the first, under 0.2 µM for the second. The second is the more potent here.

COc1ccc(/C=N/OCC(=O)OCC(=O)N(C)c2ccccc2)cc1 and CCOc1ncccc1C(=O)OCC(=O)N1CCc2ccccc21 are within 1.5-fold of each other in IC50: 25.9 µM for the first, 25.5 µM for the second.

Going from COC(=O)C1C(O)C(C)C(O)C(C)/C=C\C=C(/C)C(=O)Nc2c(C)c(OC(C)=O)c3c(c2O)C(=O)C(C)=C2OCOC(=C23)/C(C)=C/C(C)(O)C(O)C(C)C1O (centres undefined) to CO[C@@H]1[C@@H](OC(N)=O)[C@@H](O)C(Oc2ccc3c(O)c(NC(=O)c4ccc(O)c(CC=C(C)C)c4)c(=O)oc3c2C)OC1(C)C (some centres undefined), the IC50 rises from under 0.2 µM to 9.33 µM.

CCOc1cc(CNCCCN2CCOCC2)cc(Br)c1OCC(=O)Nc1cccc(C(F)(F)F)c1 and CCOc1cc(/C=N/Nc2nc(Nc3ccccc3)nc(N3CCCCC3)n2)ccc1OCC(=O)O are within 1.5-fold of each other in IC50: 23.3 µM for the first, 20.5 µM for the second.

First: c1ccc(CSc2ccc(-c3ccccn3)nn2)cc1
Second: Cc1cccc(C)c1Nc1c(-c2ccccn2)nc2ccccn12
The IC50 of the first is 15-fold higher: 89.4 µM for the first, 5.93 µM for the second.

Going from C(=N\Nc1ncnc2sc3c(c12)CCC3)/c1cccs1 to COc1cccc(NC(=O)CNC(=O)Cn2cnc3sc4c(c3c2=O)CCCC4)c1, the IC50 rises from 36.9 µM to 66.7 µM (1.8-fold).

Going from O=c1c(C=NCCN2CCNCC2)c(O)n(C2CCCCC2)c(=O)n1C1CCCCC1 to O=C(CSC1=Nc2ccccc2C2=NC(c3ccccc3)C(=O)N12)NC1CCCCC1 (centres undefined), the IC50 falls from 28.4 µM to 1.03 µM (28-fold). The second is the more potent here.

First: CCCCCCCCSc1nnc(CSc2nc3nc(C)cc(C)n3n2)o1
Second: CC(C)(C)OC(=O)NCCCCCc1nnc(SCc2ccc(F)cc2)o1
The IC50 of the first is 29-fold lower: 2.63 µM for the first, 75 µM for the second.

Going from O=C(CCl)NCc1cc(-c2ccc(Cl)cc2)no1 to Cc1cc(-c2ccc(Cl)cc2)c2cnn(C(C)C)c2n1, the IC50 rises from 0.35 µM to 38.9 µM (110-fold).

Going from Cc1ccc(-c2cc(-c3ccccc3C)[nH]n2)c(O)c1 to Cc1cc(NC(=O)c2sccc2C)n(-c2nc3ccccc3[nH]2)n1, the IC50 falls from 38.4 µM to 10.2 µM (3.8-fold).

First: CCOC(=O)N1CCN(c2nc(N(c3ccccc3)c3ccccc3)nc(-n3ccnc3)n2)CC1
Second: CC(=O)N1CCN(c2ccc(OC[C@H]3CO[C@](Cn4ccnc4)(c4ccc(Cl)cc4Cl)O3)cc2)CC1
The IC50 of the first is 6.7-fold higher: 98.2 µM for the first, 14.6 µM for the second.

COC(=O)c1ccc(C(=O)OC)c(NC(=O)CSc2cccc[n+]2[O-])c1 and COc1ccc(NC(=O)CSC2=C(C#N)C(c3ccco3)C(C(=O)Nc3nc4ccccc4s3)=C(C)N2)cc1 (centres undefined) are within 1.5-fold of each other in IC50: 5.72 µM for the first, 7.09 µM for the second.

Compared with Cc1nc(-c2ccccc2)sc1C(=O)/C=C/c1ccccc1, O=C(/C=C/c1cn(-c2ccccc2)nc1-c1cccnc1)c1ccco1 is 3.2-fold higher in IC50: 12.4 µM for the first, 39.5 µM for the second. The first is the more potent here.

First: O=c1c(Cl)nc2cc(Cl)ccc2n1CCNc1ncc(C(F)(F)F)cc1Cl
Second: Nc1nc(Cl)cc(N2CCC(c3cc(-c4ccc(Cl)cc4Cl)n[nH]3)CC2)n1
The IC50 of the first is 8.7-fold lower: 2.97 µM for the first, 25.9 µM for the second.

CCOC(=O)CSc1nc(N)c(C(=O)Nc2ccc(N(C)C)cc2)s1 and CSc1cccc(NC(=O)CCS(=O)(=O)c2cccc3nonc23)c1 are within 1.5-fold of each other in IC50: 4.23 µM for the first, 5.57 µM for the second.

Compared with COc1ccc(-c2cc3nc(CCl)[nH]c(=O)c3s2)cc1, COc1ccc(C2Oc3ccccc3C3=C2C(c2cccs2)n2ncnc2N3)cc1 (centres undefined) is 13-fold higher in IC50: 5.94 µM for the first, 78.9 µM for the second.

NC1=NC[C@H](CC2CCCCC2)N1CCc1cc(C(F)(F)F)cc(C(F)(F)F)c1 and CN1CCN(C2Cc3ccccc3Sc3cc(C(F)(F)F)ccc32)CC1 (centres undefined) are within 1.5-fold of each other in IC50: 11.2 µM for the first, 14 µM for the second.

First: COc1ccc(C2=Nn3c(nnc3-c3ccccc3F)SC2)cc1OC1CCCC1
Second: COCCn1nnnc1C(c1cc2cc(OC)ccc2[nH]c1=O)N1CCC(Cc2ccccc2)CC1 (centres undefined)
The IC50 of the first is 4.6-fold lower: 19.5 µM for the first, 89.8 µM for the second.

Cc1ccc(NS(=O)(=O)c2ccc(NC(=O)CN(c3cc([N+](=O)[O-])ccc3C)S(C)(=O)=O)cc2)c(C)c1 and O=C(C[n+]1ccc(C(=O)c2ccccc2)cc1)Nc1ccc(C(F)(F)F)cc1 are within 1.5-fold of each other in IC50: 33.1 µM for the first, 23.4 µM for the second.

COc1ccc(C(CCNCc2ccc(OC(C)C)cc2)C(C)C)cc1 (centres undefined) and CCN=c1scc(-c2ccco2)n1/N=C/c1ccc(OC)c(O)c1 are within 1.5-fold of each other in IC50: 23.8 µM for the first, 23.2 µM for the second.

First: Cc1cccc(C)c1OCCCCc1c(C)n[nH]c1C
Second: CCCc1cc(-c2nc(N)ncc2-c2ccc3c(c2)OCCCO3)c(O)cc1OC
The IC50 of the first is 3.1-fold lower: 17.7 µM for the first, 54.3 µM for the second. The first is the more potent here.

Compared with CCn1c(NC(=O)c2nn(C)cc2Br)nc2ccccc21, Cc1csc(NC(=S)Nc2cccc(Cl)c2)n1 is 2.1-fold lower in IC50: 9.5 µM for the first, 4.42 µM for the second. The second is the more potent here.

Compared with c1ccc(CN2CCC3(CCCc4ccccc43)CC2)cc1, CN1CCN(Cn2cc(/C=C/C(=O)c3ccccc3)c3ccccc32)CC1 is 1.6-fold higher in IC50: 12.2 µM for the first, 19.8 µM for the second.

Going from C=C(C)C1Cc2c(C)nn(-c3nc(C)cc(C)n3)c2C1 (centres undefined) to c1ccc2c(c1)CCN(c1nc(CN3CCOCC3)nc3sc4c(c13)CCCC4)C2, the IC50 rises from 8.78 µM to 45.2 µM (5.1-fold).

Compared with Cc1ccc(C(=O)N/N=C(/CC(=O)c2cccs2)C(F)(F)F)cc1, O=C(CCl)NN=C(c1ccccc1)c1ccccc1 is 1.7-fold lower in IC50: 2.25 µM for the first, 1.32 µM for the second. The second is the more potent here.

First: Oc1ccc(-[n+]2c(-c3ccccc3)cc(-c3ccccc3)cc2-c2ccccc2)cc1
Second: c1ccc(/N=C2\N=C(Nc3ccccn3)c3ccccc32)nc1
The IC50 of the first is 7-fold higher: 14.3 µM for the first, 2.05 µM for the second.

Compared with CCCCC(CC)CN=C(N)NC(N)=NCCCCCCN=C(N)NC(N)=NCC(CC)CCCC (centres undefined), NC(=O)c1ccc(N=Cc2ccc([N+](=O)[O-])s2)cc1 is 3.1-fold higher in IC50: 5.37 µM for the first, 16.9 µM for the second. The first is the more potent here.

O=C(/C=C/c1cccnc1)c1cccc(O)c1 and COc1cc(C2c3cc4c(cc3C(OC3OC5COC(c6cccs6)OC5C(O)C3O)C3COC(=O)C23)OCO4)cc(OC)c1O (centres undefined) are within 1.5-fold of each other in IC50: 22.4 µM for the first, 27.6 µM for the second.

same assay, conditions: measured here: IC90 growth inhibition

Compared with CCc1cc(C(=O)Nc2nc(-c3ccccn3)cs2)sc1C, Cc1cc(Cl)ccc1OCCCC(=O)NO is higher in IC90: 8.86 µM for the first, over 100 µM for the second.
